Test results reported in patent publication US10328077B2 (CELGENE CORPORATION, priority 2016, dated 2019).

Legend:
human LSD-1 = human LSD-1 (Homo sapiens (Human), UniProt O60341); assay: In vitro enzyme inhibition assay LSD-1 (TR-FRET); type: biochemical; details: TR-FRET, H3K4me1-biotin labeled peptide
Text: This assay determines the ability of a test compound to inhibit LSD-1 demethylase activity.
The enzymatic assay of LSD-1 activity is based on Time Resolved-Fluorescence Resonance Energy Transfer (TR-FRET) detection.

[1] = tested on: CD11b expression in THP-1 (AML) cells; assay: LSD-1 CD11b cellular assay (flow cytometry); details: Homo sapiens, THP-1, 96 h, read-out: THP-1 IC50

SMILES | IC50 (human LSD-1) [nM] | IC50 [1] [nM]
Cn1c(N2CCC(N)CC2)nc(-c2ccc(C#N)cc2)c(-c2ccc(C(N)=O)c(F)c2)c1=O [Example 41, 4-[2-(4-aminopiperidyl)-6-(4-cyanophenyl)-3-methyl-4-oxo(3-hydropyrimidin-5-yl)]-2-fluorobenzamide] | < 100 | 100 to 1000
Cn1c(N2CCC(N)CC2)nc(-c2ccc(C#N)c(F)c2)c(-c2cccc(F)c2)c1=O [Example 102, 4-[2-(4-aminopiperidin-1-yl)-5-(3-fluorophenyl)-1-methyl-6-oxopyrimidin-4-yl]-2-fluorobenzonitrile] | < 100 | < 100
COc1ccc(-c2c(-c3ccc(C#N)c(F)c3)nc(N3CC(N)C3)n(C)c2=O)cc1 [Example 64, 4-[2-(3-amino-azetidin-1-yl)-5-(4-methoxy-phenyl)-1-methyl-6-oxo-1,6-dihydro-pyrimidin-4-yl]-2-fluoro-benzonitrile] | < 100 | 100 to 1000
CN(C)c1ccc(-c2c(-c3ccc(C#N)c(F)c3)nc(N3CCC(N)CC3)n(C)c2=O)cc1 [Example 59, 4-[2-(4-amino-piperidin-1-yl)-5-(4-dimethylamino-phenyl)-1-methyl-6-oxo-1,6-dihydro-pyrimidin-4-yl]-2-fluoro-benzonitrile] | < 100 | < 100
COc1ccc(-c2c(-c3ccc(C#N)c(F)c3)nc(N(C)C[C@@H]3CCNC3)n(C)c2=O)cc1 (stereo in doubt) [Example 56, 2-fluoro-4-[5-(4-methoxy-phenyl)-1-methyl-2-(methyl-pyrrolidin-3-ylmethyl-amino)-6-oxo-1,6-dihydro-pyrimidin-4-yl]-benzonitrile] | < 100 | < 100
Cn1c(N2CCC(N)CC2)nc(-c2ccc(C#N)c(F)c2)c(-c2ccc(N)cc2)c1=O [Example 89, 4-[5-(4-aminophenyl)-2-(4-aminopiperidin-1-yl)-1-methyl-6-oxopyrimidin-4-yl]-2-fluorobenzonitrile] | < 100 | < 100
COc1ccc(-c2c(-c3ccc(C#N)c(F)c3)nc(N3CCC[C@@H](N)C3)n(C)c2=O)cc1F [Example 25, 4-[2-((3R)-3-aminopiperidyl)-5-(3-fluoro-4-methoxyphenyl)-1-methyl-6-oxohydropyrimidin-4-yl]-2-fluorobenzenecarbonitrile] | < 100 | < 100
COc1ccc(-c2c(-c3ccc(C#N)c(F)c3)nc(N(C)C[C@H]3CCNC3)n(C)c2=O)cc1 [Example 54, 2-fluoro-4-[5-(4-methoxy-phenyl)-1-methyl-2-(methyl-(3S)-pyrrolidin-3-ylmethyl-amino)-6-oxo-1,6-dihydro-pyrimidin-4-yl]-benzonitrile] | < 100 | < 100
CNC1CCN(c2nc(-c3ccc(C#N)c(F)c3)c(-c3ccc(N(C)C)nc3)c(=O)n2C)CC1 [Example 83, 4-[5-(6-dimethylamino-pyridin-3-yl)-1-methyl-2-(4-methylamino-piperidin-1-yl)-6-oxo-1,6-dihydro-pyrimidin-4-yl]-2-fluoro-benzonitrile] | < 100 | < 100

Other lines, results leading:

IC50 (human LSD-1) [nM] | IC50 [1] [nM] | SMILES
< 100 | < 100 | Cn1c(N2CCC(N)CC2)nc(-c2ccc(C#N)cc2)c(-c2ccc(OCCO)cc2)c1=O [Example 97, 4-[2-(4-aminopiperidin-1-yl)-5-[4-(2-hydroxyethoxy)phenyl]-1-methyl-6-oxopyrimidin-4-yl]benzonitrile]
< 100 | < 100 | CCOc1ccc(-c2c(-c3ccc(C#N)c(F)c3)nc(N3CCC(N)CC3)n(C)c2=O)cc1 [Example 95, 4-[2-(4-aminopiperidin-1-yl)-5-(4-ethoxyphenyl)-1-methyl-6-oxopyrimidin-4-yl]-2-fluorobenzonitrile]
< 100 | < 100 | COc1ccc(-c2c(-c3ccc(C#N)c(F)c3)nc(N3CC[C@@H](N)[C@@H](F)C3)n(C)c2=O)cc1 [Example 78, 4-[2-((4R, 3S)-4-amino-3-fluoro-piperidin-1-yl)-5-(4-methoxy-phenyl)-1-methyl-6-oxo-1,6-dihydro-pyrimidin-4-yl]-2-fluoro-benzonitrile]
< 100 | < 100 | CNC1CCN(c2nc(-c3ccc(C#N)c(F)c3)c(-c3ccc(OC)nc3)c(=O)n2C)CC1 [Example 58, 2-fluoro-4-[5-(6-methoxy-pyridin-3-yl)-1-methyl-2-(4-methylamino-piperidin-1-yl)-6-oxo-1,6-dihydro-pyrimidin-4-yl]-benzonitrile]
< 100 | < 100 | Cn1cc2cc(-c3c(-c4ccc(C#N)c(F)c4)nc(N4CCC(N)CC4)n(C)c3=O)ccc2n1 [Example 37, 4-[2-(4-aminopiperidyl)-1-methyl-5-(2-methyl(2H-indazol-5-yl))-6-oxohydropyrimidin-4-yl]-2-fluorobenzenecarbonitrile]
< 100 | < 100 | COc1ccc(-c2c(-c3ccc(C#N)c(F)c3)nc(N3CCC(N)CC3)n(CC(N)=O)c2=O)cc1 [Example 16, 2-[2-(4-amino-piperidin-1-yl)-4-(4-cyano-3-fluoro-phenyl)-5-(4-methoxy-phenyl)-6-oxo-6H-pyrimidin-1-yl]-acetamide]
< 100 | < 100 | CN(C)C1CCN(c2nc(-c3ccc(C#N)c(F)c3)c(-c3ccc4cn(C)nc4c3)c(=O)n2C)CC1 [Example 80, 4-[2-(4-dimethylamino-piperidin-1-yl)-1-methyl-5-(2-methyl-2H-indazol-6-yl)-6-oxo-1,6-dihydro-pyrimidin-4-yl]-2-fluoro-benzonitrile]
< 100 | < 100 | COc1ccc(-c2c(-c3ccc(C#N)c(F)c3)nc(N3CCC[C@@H](N)C3)n(C)c2=O)cc1 [Example 30, 4-[2-((3R)-3-aminopiperidyl)-5-(4-methoxyphenyl)-1-methyl-6-oxohydro-pyrimidin-4-yl]-2-fluorobenzenecarbonitrile]
< 100 | < 100 | COc1ccc(-c2c(-c3ccc(C#N)c(F)c3)nc(N3CCC4(CCNC4)CC3)n(C)c2=O)cc1F [Example 22, 4-[2-(2,8-diaza-spiro[4.5]dec-8-yl)-5-(3-fluoro-4-methoxy-phenyl)-1-methyl-6-oxo-1,6-dihydro-pyrimidin-4-yl]-2-fluorobenzonitrile]
< 100 | < 100 | COc1c(F)cc(-c2c(-c3ccc(C#N)cc3)nc(N3CCC(N)CC3)n(C)c2=O)cc1F [Example 38, 4-[2-(4-aminopiperidyl)-5-(3,5-difluoro-4-methoxyphenyl)-1-methyl-6-oxohydropyrimidin-4-yl]benzenecarbonitrile]
< 100 | < 100 | CNCC1CN(c2nc(-c3ccc(C#N)c(F)c3)c(-c3ccc(OC)cc3)c(=O)n2C)C1 [Example 70, 2-fluoro-4-[5-(4-methoxy-phenyl)-1-methyl-2-(3-methylaminomethyl-azetidin-1-yl)-6-oxo-1,6-dihydro-pyrimidin-4-yl]-benzonitrile]
< 100 | < 100 | Cn1c(N2CCC(N)CC2)nc(-c2ccc(C#N)c(F)c2)c(-c2ccc(S(C)(=O)=O)cc2)c1=O [Example 105, 4-[2-(4-aminopiperidin-1-yl)-1-methyl-5-(4-methylsulfonylphenyl)-6-oxopyrimidin-4-yl]-2-fluorobenzonitrile]
